# Results taken from patent US20090312407A1, “Synthetic Flavonoids and Pharmaceutical Compositions and Therapeutic Methods of Treatment of Cancer and other Pathologies” (priority 2007, published 2009).
# Where “and” joins values, the source holds several entries; their conditions need not be identical. Equal entries are not always repeated. Entries after “also recorded” stand apart in the source; their conditions may differ. Where two headings read alike, the source gives them in different places.
# Columns and labels:
# benzodiazepine receptor = conditions: cited from earlier work
# H-9 cells = assay: Cytotoxicity on H-9 cells; type: cell-based; conditions: for Cells (×10^4) Mean / Cells (×10^4): Table 3, 12-05 to 12-09/2005; for inhibition at 5 µg/mL: H9, 5 μg/ml; for inhibition at 10 µg/mL: H9, 10 μg/ml; for inhibition at 50 µg/mL: H9, 50 μg/ml
# Text: (§1) The purified and identified analogs were subjected to in vitro biological testing.
# These three congeners were further evaluated in H9 and PC3 cells. AZT was employed as a positive control in all of these experiments.
# MCF-7 cells = assay: Cytotoxicity on MCF-7 cells; type: cell-based; conditions: for Cells (×10^4) Mean / Cells (×10^4): Table 6, 11-14 to 11-18/2005; for % Inhibition / inhibition at 1 µg/mL / inhibition at 5 µg/mL / inhibition at 10 µg/mL / inhibition at 50 µg/mL: vs 2% DMSO, Table 6; for inhibition at 1 µg/mL / inhibition at 5 µg/mL / inhibition at 10 µg/mL / inhibition at 50 µg/mL: Homo sapiens; for inhibition at 1 µg/mL: MCF7, 1 μg/ml; for inhibition at 5 µg/mL: MCF7, 5 μg/ml; for inhibition at 10 µg/mL: MCF7, 10 μg/ml; for inhibition at 50 µg/mL: MCF7, 50 μg/ml
# PC-3 cells = assay: Cytotoxicity on PC-3 cells; type: cell-based; conditions: PC-3 cells; same conditions as AZT
# Text: as §1
# [1] = tested on: multidrug resistant cells; conditions: collateral sensitivity; cited from earlier work
# [2] = attributed to 3-OH group; cited from earlier work
# [3] = Homo sapiens, single count, vs 2% DMSO, Table 3, read-out: % Inhibition
# [4] = Homo sapiens, vs 2% DMSO, Table 3, read-out: % Inhibition Mean
# [5] = single count, read-out: % Inhibition
structure (smiles),measurement,setting,value
O=c1cc(-c2cccc([N+](=O)[O-])c2)oc2ccc(Br)cc12 [6-bromo-3′-nitroflavone],activity as benzodiazepine receptor ligand compared to diazepam,benzodiazepine receptor,close or higher than that of diazepam
O=c1cc(-c2ccccc2)oc2ccc(Br)cc12 [6-bromoflavone],activity as benzodiazepine receptor ligand compared to diazepam,benzodiazepine receptor,close or higher than that of diazepam
COc1ccc(C=CC(=O)c2cc(Br)cc(Br)c2O)cc1OC (stereo in doubt) [CHBr 2M],Cells (×10^4) Mean,H-9 cells; 1 μg/ml,47.42 ×10^4
same,% Inhibition,"H-9 cells; 1 μg/ml, single count, vs 2% DMSO, Table 3",9.45% and 1.49% and 5.97%
same,Cells (×10^4),"H-9 cells; 1 μg/ml, single count",45.5 ×10^4 and 49.5 ×10^4 and 47.3 ×10^4
same,Cells (×10^4) Mean,H-9 cells; 5 μg/ml,25.33 ×10^4
same,% Inhibition,"H-9 cells; 5 μg/ml, single count, vs 2% DMSO, Table 3",50.75% and 48.76%
same,Cells (×10^4),"H-9 cells; 5 μg/ml, single count",25.5 ×10^4 and 24.8 ×10^4 and 25.8 ×10^4
same,Cells (×10^4) Mean,H-9 cells; 10 μg/ml,17.58 ×10^4
same,% Inhibition,"H-9 cells; 10 μg/ml, single count, vs 2% DMSO, Table 3",67.68%
same,Cells (×10^4),"H-9 cells; 10 μg/ml, single count",18.3 ×10^4 and 16.3 ×10^4
same,Cells (×10^4) Mean,H-9 cells; 50 μg/ml,11.58 ×10^4
same,% Inhibition,"H-9 cells; 50 μg/ml, single count, vs 2% DMSO, Table 3",77.11%
same,Cells (×10^4),"H-9 cells; 50 μg/ml, single count",11.8 ×10^4 and 11.5 ×10^4
same,inhibitory activity / growth inhibition compared to AZT,"H-9 cells; H-9 cells, same conditions as AZT",much superior; also recorded: as good or somewhat better
same,inhibition at 1 µg/mL,"H-9 cells; Homo sapiens, H9, 1 μg/ml, vs 2% DMSO, Table 3, read-out: % Inhibition Mean",5.64%
same,inhibition at 5 µg/mL,H-9 cells; [3],49.2%
same,inhibition at 5 µg/mL,H-9 cells; [4],49.6%
same,inhibition at 10 µg/mL,H-9 cells; [3],63.7%
same,inhibition at 10 µg/mL,H-9 cells; [4],65%
same,inhibition at 50 µg/mL,H-9 cells; [3],76.6%
same,inhibition at 50 µg/mL,H-9 cells; [4],77%
same,Cells (×10^4) Mean,MCF-7 cells; 1 μg/ml,49.08 ×10^4
same,% Inhibition,"MCF-7 cells; 1 μg/ml, single count",10.95% and 18.73%
same,Cells (×10^4),"MCF-7 cells; 1 μg/ml, single count",48.8 ×10^4 and 51.5 ×10^4 and 47.0 ×10^4
same,Cells (×10^4) Mean,MCF-7 cells; 5 μg/ml,26.25 ×10^4
same,% Inhibition,"MCF-7 cells; 5 μg/ml, single count",56.34% and 54.18%
same,Cells (×10^4),"MCF-7 cells; 5 μg/ml, single count",27.0 ×10^4 and 25.3 ×10^4 and 26.5 ×10^4
same,Cells (×10^4) Mean,MCF-7 cells; 10 μg/ml,7.92 ×10^4
same,% Inhibition,"MCF-7 cells; 10 μg/ml, single count",84.44% and 87.03%
same,Cells (×10^4),"MCF-7 cells; 10 μg/ml, single count",7.3 ×10^4 and 9.0 ×10^4 and 7.5 ×10^4
same,Cells (×10^4) Mean,MCF-7 cells; 50 μg/ml,0.75 ×10^4
same,% Inhibition,"MCF-7 cells; 50 μg/ml, single count",98.27% and 99.14%
same,Cells (×10^4),"MCF-7 cells; 50 μg/ml, single count",0.8 ×10^4 and 1.0 ×10^4 and 0.5 ×10^4
same,inhibition at 1 µg/mL,MCF-7 cells; [5],15.7%
same,inhibition at 1 µg/mL,MCF-7 cells; read-out: % Inhibition Mean,15.1%
same,inhibition at 5 µg/mL,MCF-7 cells; [5],53.3%
same,inhibition at 5 µg/mL,MCF-7 cells; read-out: % Inhibition Mean,54.6%
same,inhibition at 10 µg/mL,MCF-7 cells; [5],87.5%
same,inhibition at 10 µg/mL,MCF-7 cells; read-out: % Inhibition Mean,86.3%
same,inhibition at 50 µg/mL,MCF-7 cells; [5],98.7%
same,inhibition at 50 µg/mL,MCF-7 cells; read-out: % Inhibition Mean,98.7%
same,inhibitory activity / growth inhibition compared to AZT,"MCF-7 cells; MCF-7 cells, same conditions as AZT",much superior; also recorded: as good or somewhat better
same,cytotoxic activities on MCF-7 cells,MCF-7 cells; different drug concentrations,good cytotoxic activities
same,inhibitory activity / growth inhibition compared to AZT,PC-3 cells,much superior; also recorded: as good or somewhat better
O=c1cc(-c2ccccc2)oc2ccc3ccccc3c12 [β-naphthoflavone],toxicity to multidrug resistant cells vs drug-sensitive counterparts,[1],considerably more toxic to multidrug resistant cells than to their drug-sensitive counterparts
O=c1c(O)c(-c2ccc(O)c(O)c2)oc2cc(O)cc(O)c12 [quercetin],mutagenic properties,[2],some mutagenic properties
